Assay results from US12653827B2, “Methods of treating indolent systemic mastocytosis” (Telios Pharma Inc., priority 2024, dated 2026).

How the values were obtained:
[1] = test system: IL-8, MCP-1, GM-CSF and IL-13; test: MRGPRX2-mediated cytokine production in ISM-like mast cells; type: cell-based, human
Protocol: Human mast cells were differentiated from bone marrow CD34+ cells from four healthy donors and were cultured in the presence of SCF (100 ng/mL) to mimic mast cells in ISM and treated with Compound 128 for two hours prior to stimulation. Mas-related G protein-coupled receptor (MRGPRX2) agonists, Compound 48/80 (C48/80; a product of N-methyl-p-methoxyphenethylamine with formaldehyde) or Substance P (SP) were used to activate the MRGPRX2 pathway. For pBTK test, cells were stimulated with C48/80 (10 μg/mL) for ten minutes at 37° C. and cells were stained. The median fluorescence intensity of phosphorylated BTK was measured. The fold change over unstimulated control for pBTK was calculated. For cytokine test, cells were stimulated with C48/80 (10 μg/mL) or SP (30 μM) for four hours at 37° C. Supernatant was collected and cytokine levels were measured using the BD Cytometric Bead Array (CBA) human soluble protein master buffer kit (Becton Dickinson) and BD CBA human soluble protein flex sets for IL-8, MCP-1, GM-CSF and IL-13 (Becton Dickinson). Cytokine levels were measured and normalized to percent of control, with 0% representing the level of the unstimulated control.

serum tryptase = test: Serum tryptase in ISM patients; type: in vivo, human; conditions: 100 mg or 150 mg BID
Protocol: Also, blood samples were collected at the following timepoints: Cycle 1, Day 1: pre-dose (within 30 minutes prior to the morning dose), 0.5, 1.0, 2.0, 3.0, 4.0, and 6.0 hours (±15 minutes) post-morning dose. Cycle 1, Day 8: pre-dose (within 30 minutes prior to the morning dose) and 2 hours (±15 minutes) post-morning dose. Serum tryptase tests were conducted according to Example 14.
The measurement of serum tryptase can be followed to the procedure described in the literature (McMurray et al., Standardized indolent systemic mastocytosis evaluations across a health care system: implications for screening accuracy, Blood (2024) 144 (4): 408-419). Briefly, the procedure begins with proper patient preparation, avoiding recent physical activity or triggers that could cause mast cell activation. Venous blood samples, preferably drawn when the patient is not experiencing acute symptoms, are collected in serum separator tubes (SSTs) or plain red-top tubes, with approximately 5 mL of blood needed for analysis. After collection, the blood is allowed to clot at room temperature for 30-60 minutes before centrifugation for 10-15 minutes. The serum is then carefully separated from the cells and stored at 2-8° C. for short-term analysis or frozen at −20° C. or lower for long-term storage. […]

BTK = BTK (Homo sapiens, UniProt Q06187); test: BTK phosphorylation in mast cells (FIG. 19); type: cell-based; design: endogenous in cells
[2] = test system: downstream signaling proteins; test: Downstream signaling proteins in antigen-stimulated mast cells (FIG. 20); type: cell-based; conditions: mast cells stimulated with an antigen
IL-4 = test: Anti-IgE induced IL-4 production from basophils in whole blood; type: cell-based, human; conditions: whole blood from a healthy donor, treated two hours, anti-IgE six hours
Protocol: Human mast cells lines, ROSA with wildtype KIT and ROSA […] with D816V KIT mutation (ISM-like cells), were licensed from CRNS Innovation and cultured with or without stem cell factor (100 ng/mL), respectively (FIG. 12A). ROSA cells were stimulated with IL-4 (20 ng/mL; R&D Systems) for 18 hours, stained for FcεRIα(Becton Dickinson) for 30 minutes on ice, washed twice with FACS buffer and data was acquired on a flow cytometer. The median fluorescence intensity of FcεRIα was measured. […] Whole blood from a healthy donor was treated with Compound 128 for two hours and the basophils were stimulated with anti-IgE (1 μg/mL; Beckman Coulter) for six hours (FIG. 12B). Plasma was collected and IL-4 levels were measured using the BD CBA human soluble protein master buffer kit and BD CBA human soluble protein flex set for IL-4 (Becton Dickinson). A four-parameter logistic regression analysis was performed on the cytokine levels to determine the EC50 and EC90. […] Therefore, Compound 128 may indirectly effect FcεRI expression by the reduction of IL-4 levels.

human mast cells = test: ISM-like mast cell chemotaxis towards conditioned media (Transwell); type: cell-based; conditions: ISM-like conditions, four healthy donors, treated two hours
Protocol: Human mast cells were differentiated from bone marrow CD34+ cells from four healthy donors as set forth in Example 4. Cells were used to produce conditioned media in ISM-like conditions. Conditioned media was the supernatant collected from mast cells cultured with stem cell factor (100 ng/mL), sensitized with NP-IgE (0.1 μg/mL) for 18 hours, treated with Compound 128 for two hours, and stimulated with NP-BSA (antigen; 0.1 μg/mL) for four hours. Migration of mast cells in the top chamber on Transwell […] inserts (Corning) towards the antigen-stimulated conditioned media in the bottom chamber was quantified after four hours using the CellTiter-Glo™ Luminescent Cell Viability Assay Kit (Promega). The amount of luminescence is correlated with live cell numbers. Fold change over the non-activated control was calculated.

BTK, sequence (Q06187 whole entry): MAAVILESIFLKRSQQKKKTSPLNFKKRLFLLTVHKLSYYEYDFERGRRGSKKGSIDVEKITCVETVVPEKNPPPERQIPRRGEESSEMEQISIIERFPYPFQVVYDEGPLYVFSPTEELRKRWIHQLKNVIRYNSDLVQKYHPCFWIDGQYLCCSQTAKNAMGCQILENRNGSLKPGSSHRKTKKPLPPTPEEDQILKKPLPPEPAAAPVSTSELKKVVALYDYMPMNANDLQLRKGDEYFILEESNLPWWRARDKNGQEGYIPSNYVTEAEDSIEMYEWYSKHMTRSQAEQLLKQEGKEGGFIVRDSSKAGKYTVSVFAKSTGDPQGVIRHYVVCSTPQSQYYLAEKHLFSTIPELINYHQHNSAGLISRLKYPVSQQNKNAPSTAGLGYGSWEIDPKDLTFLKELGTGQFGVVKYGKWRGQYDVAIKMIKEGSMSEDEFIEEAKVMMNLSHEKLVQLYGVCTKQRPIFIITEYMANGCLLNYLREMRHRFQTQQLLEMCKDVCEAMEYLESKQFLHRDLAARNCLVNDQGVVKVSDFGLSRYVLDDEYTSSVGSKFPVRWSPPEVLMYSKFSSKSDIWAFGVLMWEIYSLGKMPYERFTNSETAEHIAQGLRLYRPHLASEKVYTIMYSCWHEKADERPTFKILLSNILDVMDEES

C=CC(=O)N1CCC(F)(CNc2ncnc(N)c2-c2ccc(Oc3ccccc3)cc2)CC1 [Compound 128, 1-(4-(((6-amino-5-(4-phenoxyphenyl)pyrimidin-4-yl)amino)methyl)-4-fluoropiperidin-1-yl)prop-2-en-1-one]
MRGPRX2-mediated cytokine production ([1]; 0.1 μM): partially inhibited | MRGPRX2-mediated cytokine production ([1]; 0.5 and 1 μM): inhibition of cytokine production was increased | C48/80-mediated cytokine production ([1]; C48/80 (10 μg/mL) stimulation): partial inhibition | MRGPRX2-mediated cytokine production in ISM-like mast cells (figure legend) ([1]; FIGS. 15A-C): inhibits | SP-mediated cytokine production ([1]; Substance P (30 μM) stimulation): fully inhibited | reduction in serum tryptase (serum tryptase): effective in reducing serum tryptase levels | potency in inhibiting BTK phosphorylation in mast cells (BTK): high potency | activation of multiple downstream signaling proteins [2]: can be inhibited | IgE-mediated IL-4 production (IL-4): potently inhibited | chemoattractant activity of mast cells (chemotaxis towards conditioned media) (human mast cells): inhibited
